≈ marks a conversion by molar mass, not a printed value. Entries after “also recorded” stand apart in the source; their conditions may differ. Read-outs that look alike come from different tables or passages of the source.
Tests used:
[1] = test system: HIV; test: HIV in vitro tests (Table 1); format: cell-based
[2] = test system: Huh7; details: Huh7, 4 days, CellTiter Glo, reference compound; cited from earlier work
[3] = test system: COVID-19; details: after one month; control arm 12.8%, difference not statistically significant; cited from earlier work
[4] = target: T1, SARS-CoV-2 main protease (Severe acute respiratory syndrome coronavirus 2, UniProt P0DTD1); details: auto dock; cited from earlier work
T1 construct: also MProtease (SARS-CoV-2 main protease)

[5] = target: T2, Mpro (Severe acute respiratory syndrome coronavirus 2, UniProt P0DTD1); details: Mpro and substrate, 40 min, 384 well; cited from earlier work
T2 construct: also MProtease (SARS-CoV-2 main protease)

[6] = test system: mouse lymphoma cells; details: with and without metabolic activation; cited from earlier work
[7] = test system: Daphnia; details: in vivo; cited from earlier work
[8] = test system: bacterial; details: with and without metabolic activation; cited from earlier work
[9] = test system: MDR-27221 HIV strain; test: microbe, parasite or virus in culture; format: cell-based, HIV-1
[10] = test system: rat; details: cited from earlier work
[11] = test system: Vero E6 cells; test: Toxicity in Vero E6 cells; format: cell-based
Protocol: Remdesivir was used as a control and verified that the assay was working. The first independent trial (done in quadruplicate) involved using the very first BTS compound sent to us, dissolved at 10 ug/ml in DMSO. Toxicity was observed ˜0.078 ug/ml ([…] based on the molecular weight we were given and the concentration of the drug). The dose curve (log (inhibitor) vs. response (three parameters)) yielded the nicest curve, but only reached a maximum of ˜20% protection. […] Twenty-two 2-fold dilutions of the drug starting from 10 ug/ml (˜323 uM).
FIG. 18 illustrates a graph showing 90I toxicity in Vero E6 cells, according to an exemplary embodiment of the present general inventive concept.

[12] = test system: rats; details: OECD 401; cited from earlier work
[13] = cited from earlier work
[14] = test system: gamma interferon; test: Production of gamma interferon by cells; format: cell-based; details: compared with positive control PMA-Ionomycin combination
Text: FIG. 4 illustrates a graph showing production of gamma interferon by cells receiving 90I compared to other drugs, according to an exemplary embodiment of the present general inventive concept.
Referring to FIG. 4, furthermore, 90I has proven to stimulate the production of gamma interferon (i.e. a dimerized soluble cytokine that is the only member of the type II class of interferons and is a product of human leukocytes and human lymphocytes). More specifically, […] and differentiate into tissue macrophages, such that each of the tissue macrophages may serve as a vehicle for transporting viruses to a variety of tissues. The ability of antiretroviral agents to cross the blood brain barrier is one important consideration, since the brain acts as a sanctuary for viruses as well as a site for disease progression.
Referring again to FIG. 4, activated CD8+ cells are reported to produce high levels of gamma interferon, which may be involved in the anti-HIV-1 immune responses, contributing to both control of viral spread and concomitant lymphoid follicular lyses. […] This finding may have a far-reaching implication and relevant to interleukin 12 (IL-12) (i.e. a cytokine that is produced by activated antigen-presenting cells, such as dendritic cells and/or macrophages). […]

[15] = test system: Eisenia foetida; details: cited from earlier work
[16] = test system: RF laboratory strain of HIV-1; test: Antiviral drug assay in CEM-SS cells; format: cell-based; details: Human immunodeficiency virus 1, CEM-SS, read-out: 50% effective concentration (EC50)
[17] = test system: Seleneastrum capricornutum; details: in vivo; cited from earlier work
[18] = 28 days; cited from earlier work
[19] = test system: intact rabbit skin; details: semi-occlusive, four hours, listed as DEGD; cited from earlier work
[20] = test system: dogs; details: up to 300 mg/kg/day for 90 days; cited from earlier work
[21] = test system: Pseudomonas putida; details: cited from earlier work
[22] = test system: activated sludge; details: cited from earlier work
[23] = test system: rats; details: cited from earlier work
[24] = test system: eye of the rabbit; details: single instillation, listed as DEGD; cited from earlier work
[25] = test system: rats; details: cited from earlier work; remark: listed apart in the source
[26] = test system: CHL cells; details: cited from earlier work
[27] = test system: ovariectomized adult Spraque-Dawley (CD) rats; details: 500-2000 mg/kg/day for 7 days, oral gavage, up to maximally tolerated dose; cited from earlier work
[28] = test system: guinea pigs; details: intradermal and topical, listed as DEGD; cited from earlier work
[29] = test system: SARS-CoV-2; test: microbe, parasite or virus in culture; format: cell-based
[30] = test system: Pimephales promelas; details: acute, 96 h; cited from earlier work
[31] = cited from earlier work; remark: listed apart in the source
[32] = Table 10 summary; cited from earlier work
[33] = test system: CEM-SS cells; test: Drug induced toxicity in CEM-SS cells; format: cell-based; details: Homo sapiens, read-out: 50% inhibitory concentration (IC50), drug induced toxicity, high-test concentration 100 ug/ml
[34] = rats, cited from earlier work
[35] = test system: HCoV; details: Huh7, 4 days, 96 well, reference compound; cited from earlier work
[36] = HIV in vitro tests, read-out: EC50
[37] = from ppm by standard conversion factors
[38] = Severe acute respiratory syndrome coronavirus 2, preliminary, first independent trial

Nc1ccn([C@H]2CC[C@@H](CO)O2)c(=O)n1 [ddc]
EC50 [1, 36]: 1 nM

CCC(CC)COC(=O)[C@H](C)N[P@](=O)(OC[C@H]1O[C@@](C#N)(c2ccc3c(N)ncnn23)[C@H](O)[C@@H]1O)Oc1ccccc1 [Remdesivir]
CC50 [2]: 29000 nM
patients who had died [3]: 13.9%

Cc1cccc(C)c1OCC(=O)N[C@@H](Cc1ccccc1)[C@@H](O)C[C@H](Cc1ccccc1)NC(=O)[C@H](C(C)C)N1CCCNC1=O [Lopinavir]
Dissociation Constant [4]: 3.4E−06
SMINA score [4]: −7.5
Vina score [4]: −7.4
EC50 [5]: 108000 nM

Cc1ccnc2c1NC(=O)c1cccnc1N2C1CC1 [Neverepin]
EC50 [1, 36]: 48 nM

O=C(OCCOCCOC(=O)c1ccccc1)c1ccccc1 [90I, diethylene glycol dibenzoate]
mutagenic potential, mammalian cell [6]: did not demonstrate mutagenic potential
EC50 for Daphnia [7]: 6.7 µg/mL
mutagenic potential, bacterial [8]: did not demonstrate mutagenic potential
EC50 ([9]; Human immunodeficiency virus 1): 3 µg/mL (≈ 9.54 µM)
inhibition of the MDR strain ([9]; MDR-27221): strong inhibitory activity
Repeat dose, NOAEL ([10]; Table 10 summary): 1,000 mg/kg bw/day
NOAEL ([10]; rat, thirteen week, diet): 1,000 mg/kg bw
concentration at which toxicity was observed ([11]; Vero E6, converted with molecular weight given): ~2500 nM
concentration at which toxicity was observed ([11]; Vero E6, first independent trial, quadruplicate): ~78 ng/mL
LD50, oral [12]: 4,198 mg/kg bw
Water solubility [13]: 193 µg/mL
amount of gamma interferon produced [14]: equivalent to that of the positive control
LC50 (14 d), earthworm ([15]; 14 d, Table 11): d) >1,000 mg/kg
acute toxicity to earthworm ([15]; 14 days): greater than 1,000 ppm
EC50 [16]: 0.02 µg/mL (≈ 0.0636 µM)
growth rate-based EC50 for algae [17]: 11 µg/mL
biodegradation [18]: 93 % of ThOD
EC50 ([1]; Human immunodeficiency virus 1): 0.3 nM
Skin irritation [19]: No dermal reaction and No
effects of dietary administration [20]: No effects
EC50 (P. putida) ([21]; Table 11): EC50 >10 mg/L
inhibitory effect (1050) ([21]; highest testable concentration 10 mg/L): > 10 mg/L
NOEC, activated sludge ([22]; Table 11): NOEC ≥100 mg/L,
activated sludge respiration ([22]; at 100 mg/L): not inhibited
Reproductive toxicity, R ([23]; Table 10 summary): R: No
NOAEL for the FO and FI parent animals [23, 37]: 500 mg/kg bw/day
NOAEL for the developing offspring [23, 37]: 165 mg/kg bw/day
NOEL for reproductive parameters [23, 37]: 500 mg/kg bw/day
NOAEL for the FO and FI parent animals, dietary concentration ([23]; rats, 2-generation, diet): 10,000 ppm
NOAEL for the developing offspring, dietary concentration ([23]; rats, 2-generation, diet): 3,300 ppm
NOEL for reproductive parameters, dietary concentration ([23]; rats, 2-generation, diet): 10,000 ppm
Eye irritation [24]: transient very slight conjunctival irritation only; also recorded: Slight
Maternal toxicity ([25]; Table 10 summary): 1,000 mg/kg bw/day
Reproductive toxicity (NOEL) ([25]; Table 10 summary): 250 mg/kg bw/day
Reproductive toxicity NOAEL ([25]; Table 10 summary): 500 mg/kg bw/day
Reproductive toxicity, D ([25]; Table 10 summary): D: Yes
NOAEL for prenatal development ([25]; rats, diet): 500 mg/kg/day
NOEL for fetal growth and development ([25]; rats, diet): 250 mg/kg/day
NOEL for maternal toxicity ([25]; rats, diet): 1,000 mg/kg/day
clastogenic activity [26]: No response considered to be indicative of clastogenic
estrogenic activity [27]: did not exhibit estrogenic activity
Sensitisation [28]: No allergic skin reaction and Not
EC50 [29, 38]: 4100 nM
IC50 [29, 38]: 2.8 nM
maximum protection ([29]; dose curve log(inhibitor) vs. response, SARS-CoV-2 infected cells): ~20%
LC50 to fish [30]: 3.9 µg/mL (≈ 12.4 µM)
Log P [31]: 3.04
Genotoxicity [32]: Negative
IC50 [33]: > 100 µg/mL
time within which almost all of the dose was adsorbed, metabolized and excreted in the urine ([34]; single oral doses of 50 and 750 mg/kg): ≤ 24 h
metabolic pathway ([34]; single oral doses): hydrolysis of the ester bonds to benzoic acid

CC(C)c1nc(CN(C)C(=O)N[C@H](C(=O)N[C@@H](Cc2ccccc2)C[C@H](O)[C@H](Cc2ccccc2)NC(=O)OCc2cncs2)C(C)C)cs1 [Retinovir]
EC50 [1, 36]: 2 nM

O=c1[nH]cnc2c1ncn2[C@H]1CC[C@@H](CO)O1 [ddI]
EC50 [1, 36]: 5.6 nM

CCN(CC)CCCC(C)Nc1ccnc2cc(Cl)ccc12 (stereo not drawn) [Chloroquine phosphate]
CC50 [2]: 40800 nM
EC50 [35]: 3450 nM

Reference: patent US11241410B2, “Method and compound for the treatment of covid-19” (priority 2020, dated 2022)
